# Data from ChEMBL document CHEMBL1148081, “Corticatic acids A-C, antifungal acetylenic acids from the marine sponge, Petrosia corticata” (J Nat Prod, 1994).
# Calls of active or inactive are those of the source. The rule behind the calls is not given here.
# Test system: Umbelopsis ramanniana
# Assay: Antimicrobial activity against Mortierella ramanniana
# Assay type: functional, organism-based
row,SMILES,Activity
1,C#CC(O)/C=C/CCCCCC#CC/C=C\CCCCCCCCCCC/C=C\C#CC(=O)O (configuration not stated),Active
2,C#CC(O)/C=C/CCCCCC#CC/C=C\CCCCCCCCCCC/C=C/C#CC(=O)O (configuration not stated),Active
